Source: patent publication US5036077A, “1-(benzylpiperidino)propan-2-ol derivatives, their preparation, their use as antimicrobial agents and the products in which they are present” (Sanofi, priority 1987, dated 1991)
In brackets after ≈: the same amount, converted by molar mass.

How the values were obtained:
Format in all cases: cell-based
[1] = tested on: Pseudomonas aeruginosa CNCM A22; test: Minimum bactericidal concentration, 30 min contact, strain 3; conditions: CNCMA22, 0.5 h; Pseudomonas aeruginosa CNCM A22; contact time 30 minutes; solubilizing agent given per product; read-out: MBC, strain 3
Procedure: (§1) A bacterial inoculum is brought into contact with different dilutions of the test product for a limited time of 30 minutes. When the contact time has ended, an aliquot of the bacterial suspension/product mixture is deposited on the surface of a gelose culture medium containing an agent for neutralizing the antibacterial activity of the product. The bactericidal concentration chosen is the minimum concentration of the product which is necessary to prevent bacterial growth. This concentration is expressed in μg/ml.
3 - Pseudomonas aeruginosa CNCM A22;
(§2) The strains are maintained on Tryptic Soy Agar (TSA) marketed by Difco.
(§3) After 24 hours of culture at 37° C., the microbial growth is harvested with the aid of glass beads and 10 ml of diluent containing 1 g of tryptone and 8.5 g of sodium chloride in 1000 ml of distilled water. The suspension formed is shaken and the percentage transmission of light at 620 nm is measured on a spectrophotometer:
(§4) The bacterial inoculum corresponds to a 1/20 dilution of this bacterial suspension.
(§5) Plates containing cups receive different dilutions of the test product. These dilutions of the test product are brought into contact with the different bacterial suspensions using a multiple-site inoculator. After a contact time of 30 minutes, aliquots are transferred by means of this inoculator to the surface of a gelose medium (TSA) placed in petri dishes and containing an agent for neutralizing the activity, namely 20 g of lubrol W, 2.5 g of Tween 80, 2.5 g of sodium thiosulfate and 1% of egg yolk in 1000 ml of TSA (Difco). A reference for the efficacy of the neutralizing agent is prepared for each test product by depositing an aliquot of the dilution of the test product on the surface of the culture medium. After drying, the corresponding inoculum is deposited in the same place. A reference inoculum is prepared on a gelose medium with and without neutralizing agent. The results are read off after 48 hours of incubation at 37° C.
(§6) They indicate the minimum bactericidal concentrations (MBC) for strains 1, 2, 3 and 4 and the minimum fungicidal concentrations (MFC) for strain 5.

[2] = tested on: Escherichia coli CNCM 54127; test: Minimum bactericidal concentration, 30 min contact, strain 4; conditions: CNCM54127, 0.5 h; Escherichia coli CNCM 54127; contact time 30 minutes; solubilizing agent given per product; read-out: MBC, strain 4
Procedure: as §1
4 - Escherichia coli CNCM 54127.
as §2, §3, §4, §5, §6

[3] = tested on: Streptococcus faecalis CNCM 5855; test: Minimum bactericidal concentration, 30 min contact, strain 2; conditions: Enterococcus faecalis, CNCM5855, 0.5 h; Streptococcus faecalis CNCM 5855; contact time 30 minutes; solubilizing agent given per product; read-out: MBC, strain 2
Procedure: as §1
2 - Streptococcus faecalis CNCM 5855;
as §2, §3, §4, §5, §6

[4] = tested on: Staphylococcus aureus CNCM 53154; test: Minimum bactericidal concentration, 30 min contact, strain 1; conditions: CNCM53154, 0.5 h; Staphylococcus aureus CNCM 53154; contact time 30 minutes; solubilizing agent (water, TEG or acetone) given per product; read-out: MBC, strain 1
Procedure: as §1
1 - Staphylococcus aureus CNCM 53154;
as §2, §3, §4, §5, §6

[5] = tested on: Candida albicans CNCM 1180; test: Minimum fungicidal concentration, strain 5; conditions: CNCM1180, 0.5 h; Candida albicans CNCM 1180; contact time 30 minutes; solubilizing agent given per product; read-out: MFC, strain 5
Procedure: as §1, §5
The antifungal activity of the products according to the invention was also determined using the method described above. The representative strain of yeast selected for the study was Candida albicans CNCM 1180 (strain 5).
This is maintained on a gelose medium of Sabouraud Dextrose Agar, marketed by Difco. The technique is identical to that described for studying the antibacterial activity. After 48 hours of culture at 37° C., the microbial growth is harvested with the aid of glass beads and 5 ml of diluent containing 1 g of tryptone and 8.5 g of sodium chloride in 1000 ml of distilled water; a further 5 ml of the diluent are then added. In a spectrophotometer, this suspension gives a 2 to 3% transmission of light at 620 nm. The inoculum corresponds to a 1/10 dilution of this microbial suspension. A 1/100 dilution of this suspension, observed between a microscope slide and cover slip through a lens of magnification 40, should show 10 cells per field, which corresponds to 1 000 000 yeasts per ml.
as §6

SMILES	MBC [1]	MBC [2]	MBC [3]	MBC [4]	MFC [5]
OC(COc1ccc(Br)cc1)CN1CCC(Cc2ccccc2)CC1 (racemic) [SR 44251 A]	100 µg/mL (≈ 247 µM)	100 µg/mL (≈ 247 µM)	100 µg/mL (≈ 247 µM)	100 µg/mL (≈ 247 µM)	–
OC(COc1ccc(Cl)cc1Cl)CN1CCC(Cc2ccccc2)CC1 (racemic) [SR 44333 B, 1-(4-Benzylpiperidino)-3-(2,4-dichlorophenoxy)propan-2-ol methanesulfonate]	50 µg/mL	50 µg/mL	50 µg/mL	50 µg/mL	50 µg/mL
OC(COc1ccc(Cl)cc1)CN1CCC(Cc2ccccc2)CC1 (racemic) [SR 44334 A]	100 µg/mL (≈ 278 µM)	100 µg/mL (≈ 278 µM)	100 µg/mL (≈ 278 µM)	500 µg/mL (≈ 1390 µM)	–
OC(CSc1ccc(Cl)c(Cl)c1)CN1CCC(Cc2ccccc2)CC1 (racemic) [SR 44473 A]	50 µg/mL (≈ 122 µM)	50 µg/mL (≈ 122 µM)	50 µg/mL (≈ 122 µM)	1000 µg/mL (≈ 2440 µM)	50 µg/mL (≈ 122 µM)
OC(COc1cc(Cl)c(Cl)cc1Cl)CN1CCC(Cc2ccccc2)CC1 (racemic) [SR 44560 A]	50 µg/mL (≈ 117 µM)	5 µg/mL (≈ 11.7 µM)	50 µg/mL (≈ 117 µM)	10 µg/mL (≈ 23.3 µM)	50 µg/mL (≈ 117 µM)
OC(COc1cc(Cl)ccc1Oc1ccc(Cl)cc1Cl)CN1CCC(Cc2ccccc2)CC1 (racemic) [SR 44641 A]	10 µg/mL (≈ 19.2 µM)	5 µg/mL (≈ 9.6 µM)	10 µg/mL (≈ 19.2 µM)	50 µg/mL (≈ 96 µM)	50 µg/mL (≈ 96 µM)
OC(COc1cccc2ccccc12)CN1CCC(Cc2ccccc2)CC1 (racemic) [SR 44644 A]	50 µg/mL (≈ 133 µM)	50 µg/mL (≈ 133 µM)	50 µg/mL (≈ 133 µM)	50 µg/mL (≈ 133 µM)	50 µg/mL (≈ 133 µM)
CC(C)(C)c1ccc(OCC(O)CN2CCC(Cc3ccccc3)CC2)cc1 (racemic) [SR 44648 A]	50 µg/mL (≈ 131 µM)	50 µg/mL (≈ 131 µM)	200 µg/mL (≈ 524 µM)	200 µg/mL (≈ 524 µM)	200 µg/mL (≈ 524 µM)
OC(COc1cc(Br)c2ccccc2c1)CN1CCC(Cc2ccccc2)CC1 (racemic) [SR 44674 A]	10 µg/mL (≈ 22 µM)	10 µg/mL (≈ 22 µM)	10 µg/mL (≈ 22 µM)	10 µg/mL (≈ 22 µM)	200 µg/mL (≈ 440 µM)
OC(COc1ccccc1-c1ccccc1)CN1CCC(Cc2ccccc2)CC1 (racemic) [SR 44676 A]	10 µg/mL (≈ 24.9 µM)	10 µg/mL (≈ 24.9 µM)	50 µg/mL (≈ 125 µM)	200 µg/mL (≈ 498 µM)	50 µg/mL (≈ 125 µM)
OC(COc1ccc(-c2ccccc2)cc1)CN1CCC(Cc2ccccc2)CC1 (racemic) [SR 44715 A]	50 µg/mL (≈ 125 µM)	50 µg/mL (≈ 125 µM)	50 µg/mL (≈ 125 µM)	50 µg/mL (≈ 125 µM)	200 µg/mL (≈ 498 µM)
OC(COc1ccc(Cl)cc1Cc1ccccc1)CN1CCC(Cc2ccccc2)CC1 (racemic) [SR 44719 B]	10 µg/mL (≈ 22.2 µM)	5 µg/mL (≈ 11.1 µM)	5 µg/mL (≈ 11.1 µM)	10 µg/mL (≈ 22.2 µM)	10 µg/mL (≈ 22.2 µM)
OC(COc1ccc2ccccc2c1)CN1CCC(Cc2ccccc2)CC1 (racemic) [SR 44807 A]	200 µg/mL (≈ 533 µM)	200 µg/mL (≈ 533 µM)	1000 µg/mL (≈ 2660 µM)	1000 µg/mL (≈ 2660 µM)	1000 µg/mL (≈ 2660 µM)
